pIC50: −log10 of the molar value.
What was measured:
[1] = test system: sDMA marks (SmD3me2s) in U-87 MG cells; experiment: Western blotting for symmetric di-methyl arginine (sDMA) marks in U-87 MG cells; type: cell-based; details: Homo sapiens, 72 h; U-87 MG cell line, 3 days
Description: (§1) Cell Treatment and Western Blotting for Detecting Symmetric Di-Methyl Arginine (sDMA) Marks
(§2) Compound Titration and Cell Culture:
(§3) Compounds were dissolved in DMSO to make 10 mM stock and 3-fold series dilutions were further conducted to make working stocks top at 1 mM. Granta-519 cells were maintained in PRMI 1640 (Corning Cellgro, Catalog #: 10-040-CV) supplemented with 10% v/v FBS (GE Healthcare, Catalog #: SH30910.03) and U-87 MG cells were maintained in DMEM (Corning Cellgro, Catalog #: 10-013-CV) with 10% FBS and 2 mM Glutamin (Corning Cellgro, Catalog #25005CV).
To determine enzyme inhibition IC50 values in Granta-519 and U-87 MG cells using Western Blot analysis. One day before experiment, Granta-519 cells were passaged to a density of 0.5×10^6 cells/ml. U-87 MG cells were trypsinized and 4×10^5 cells were seeded into 6-well plates and allow to grow overnight. The next day, Granta-519 cells were spun down at 1,500 rpm for 4 min, resuspend in fresh medium at 0.5×10^6 cells/ml and 3 mL of culture (1.5×10^6 cells) were seeded into 6 well plate. Eight-point, 3-fold serial dilutions of compound working stocks were added to cells (3 ul, 1:1,000 dilution, DMSO concentration was 0.1%; final top concentration at 1 uM) and incubated for 3 days. Cells incubated with DMSO was used as a vehicle control.
Cells were harvested 3 days later, resuspended in 15 uL PBS, lysed in 4% SDS, and homogenized by passing through homogenizer column (Omega Biotek, Catalog #: HCR003). Total protein concentrations were determined by BCA assay (ThermoFisher Scientific, Catalog #: 23225). Lysates were mixed with 5× Laemmli buffer and boiled for 5 min. Forty ug of total protein was separated on SDS-PAGE gels (Bio-Rad, catalog #: 4568083, 4568043), transferred to PVDF membrane, blocked with 5% dry milk (Bio-Rad, Catalog #: 1706404) in TBS with 0.1% v/v Tween 20 (TBST) for 1 hour at room temperature (RT), and incubated with primary antibodies (sDMA: Cell signaling, Catalog #: 13222, 1:3,000; β-Actin: sigma, Catalog #: 1:5,000) in 5% dry milk in TBST at 4° C. overnight. The next day, membranes were washed with TBST, 5×5 min, and incubated with HRP conjugated seconded antibody (GE Healthcare; Catalog #: NA934-1ML, NA931-1ML; 1:5,000) for 2 hours at RT, followed by 5×5 min washes with TBST, and incubation with ECL substrates (Bio-Rad, Catalog #: 1705061, 1705062). Chemiluminescent signal was captured with Fluochem HD2 imager (Proteinsimple). SmD3me2s bands were quantified by ImageJ. Signals were normalized to β-Actin and DMSO control. IC50 values were calculated using Graphpad Prism ([Inhibitor] vs. normalized response-Variable slope).

PRMT5/MEP50 complex = PRMT5/MEP50 complex (Homo sapiens (Human), UniProt O14744); experiment: Biochemical assay: PRMT5/MEP50 methylation of histone H4 based AcH4-23, SPA readout; details: PRMT5/MEP50 2.5 nM, 300 nM AcH4-23, 1 μM 3H-SAM
PRMT5/MEP50 complex, sequence (O14744 whole entry): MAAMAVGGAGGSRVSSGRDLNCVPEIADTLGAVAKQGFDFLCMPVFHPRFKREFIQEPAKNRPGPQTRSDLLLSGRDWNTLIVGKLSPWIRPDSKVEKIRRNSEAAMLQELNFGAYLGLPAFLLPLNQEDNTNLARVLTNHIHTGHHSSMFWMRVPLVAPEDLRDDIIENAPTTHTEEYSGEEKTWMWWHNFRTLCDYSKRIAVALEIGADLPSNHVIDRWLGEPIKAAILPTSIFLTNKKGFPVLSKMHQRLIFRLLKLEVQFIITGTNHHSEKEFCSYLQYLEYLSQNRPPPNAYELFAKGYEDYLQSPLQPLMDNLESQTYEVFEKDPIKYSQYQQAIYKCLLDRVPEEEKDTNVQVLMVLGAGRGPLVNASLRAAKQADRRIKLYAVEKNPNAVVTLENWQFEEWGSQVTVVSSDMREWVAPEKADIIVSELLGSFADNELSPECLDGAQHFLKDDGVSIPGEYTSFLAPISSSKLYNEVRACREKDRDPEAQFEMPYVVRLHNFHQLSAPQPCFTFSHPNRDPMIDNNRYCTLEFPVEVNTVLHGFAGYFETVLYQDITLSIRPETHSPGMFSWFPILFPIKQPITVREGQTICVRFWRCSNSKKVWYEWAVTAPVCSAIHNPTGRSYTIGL
PRMT5/MEP50 complex, sequence (Q9BQA1 whole entry partner): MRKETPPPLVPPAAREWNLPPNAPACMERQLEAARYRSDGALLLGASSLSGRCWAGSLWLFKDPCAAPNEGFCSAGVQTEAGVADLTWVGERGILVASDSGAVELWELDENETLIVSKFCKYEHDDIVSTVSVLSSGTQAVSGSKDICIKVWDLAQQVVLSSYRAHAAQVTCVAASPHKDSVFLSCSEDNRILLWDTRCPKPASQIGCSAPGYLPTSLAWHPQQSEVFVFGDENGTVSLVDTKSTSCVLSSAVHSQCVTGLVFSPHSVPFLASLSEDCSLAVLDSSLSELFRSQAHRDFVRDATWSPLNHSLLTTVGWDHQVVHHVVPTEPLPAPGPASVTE
Description: Biochemical Assay Protocol
Compounds were solubilized and 3-fold diluted in 100% DMSO. […] Standard reactions were performed in a total volume of 30 μl in assay buffer, with 300 nM histone H4 based AcH4-23 (Anaspec: AS-65002) as substrate. To this was added the PRMT5/MEP50 complex diluted to provide a final assay concentration of 2.5 nM and the compounds were allowed to preincubate for 20 minutes at 37° C. The reaction was initiated by adding S-[3H-methyl]-adenosyl-L-methionine (PerkinElmer: NET155001MC) to final concentration of 1 μM. Following a 30 minutes incubation at 37° C., the reaction was stopped by adding 25 μL of 8M Guanidine HCl. Prepare streptavidin YSI SPA beads (Perkinelmer: RPNQ0012) at 0.3 mg/mL in assay buffer. To each reaction, add 150 μL of SPA beads suspension, and incubated while shaking at room temperature for 30 minutes. The plate was centrifuged at 100×g for 30 second before reading in a scintillation counter. IC50 values were determined by fitting the data to the standard 4 parameters with Hill Slope using GraphPad Prism software.

U-87 MG cells = experiment: Cell proliferation assay (CCK-8, day 10) in U-87 MG cells; type: cell-based; details: Homo sapiens, 240 h, U-87 MG cell line, read-out: Prolif. IC50
Description: Cell Proliferation Assay to Determine IC50 in Granta-519 and U-87 MG Cells
One day before experiment, Granta-519 cells were passaged to a density of 0.5×10^6 cells/ml. U-87 MG cells were trypsinized and 2,000 cells were seeded into 96-well plates and allow to grow overnight. On the day of experiment (day 0), Granta-519 Cells were spun down at 1,500 rpm for 4 min, resuspended in fresh medium to 0.5×10^6 cells/ml and 190 ul of cells were added to 96 well plates. For U-87 MG cells, old medium was removed and replaced with 190 uL fresh medium. Compound working stocks were first diluted at 1:50 with fresh medium in 96 well plate and 10 μL of diluted drugs were added to 96 well plates containing cells and incubated for 3 days. DMSO was used a vehicle control.
One day 3, 50 uL of Granta-519 cells were transferred to a new 96-well plate and 140 uL fresh medium was added. For U-87 MG cells, old medium was removed and replaced with 190 uL fresh medium. Compound working stocks were freshly diluted at 1:50 with medium and 10 μL of diluted drugs were added to cells and grow for 3additional days. The same process was repeated on day 6. Cells were allowed to grow for additional 4 days.
On day 10, 100 uL Granta-519 cells were transferred to a new 96 well plate and 10 μL of Cell Counting Kit-8 (CCK-8, Jojindo, CK04-13) solution was added. For U-87 MG cells, old medium was removed and replaced with 100 uL fresh medium and 10 uL CCK-8 solution was added. Plates were incubated in CO2 incubator for 2 hours (Granta-519 cells) or 30 min (U-87 MG cells) and OD450 values were measured with a microplate reader (iMark microplate reader, Bio-Rad). Percentage of viable cells, relative to DMSO vehicle control, were calculated and plotted in Graphpad Prism ([Inhibitor] vs. normalized response-Variable slope) to determine proliferation IC50 values on day 10.

[2] = test system: sDMA marks (SmD3me2s) in Granta-519 cells; experiment: Western blotting for symmetric di-methyl arginine (sDMA) marks in Granta-519 cells; type: cell-based; details: Homo sapiens, 72 h; Granta-519 cell line (value in brackets), 3 days
Description: as §1, §2, §3
To determine enzyme inhibition IC50 values in Granta-519 and U-87 MG cells using Western Blot analysis. One day before experiment, Granta-519 cells were passaged to a density of 0.5×10^6 cells/ml. U-87 MG cells were trypsinized and 4×10^5 cells were seeded into 6-well plates and allow to grow overnight. […]
Cells were harvested 3 days later, resuspended in 15 uL PBS, lysed in 4% SDS, and homogenized by passing through homogenizer column (Omega Biotek, Catalog #: HCR003). Total protein concentrations were determined by BCA assay (ThermoFisher Scientific, Catalog #: 23225). […] SmD3me2s bands were quantified by ImageJ. […] IC50 values were calculated using Graphpad Prism ([Inhibitor] vs. normalized response-Variable slope).

SMILES | pIC50 [1] | pIC50 (PRMT5/MEP50 complex) | pIC50 (U-87 MG cells) | pIC50 [2]
Nc1ncnc2c1ccn2[C@@H]1O[C@H]([C@@H]2OCc3cc(F)c(F)cc32)[C@@H](O)[C@H]1O [Example 4, (2R,3R,4S,5S)-2-(4-amino-7H-pyrrolo[2,3-d]pyrimidin-7-yl)-5-((R)-5,6-difluoro-1,3-dihydroisobenzofuran-1-yl)tetrahydrofuran-3,4-diol] | 7.51 | 8.82 | 7.02 | –
Nc1ncnc2c1ccn2[C@@H]1C[C@H]([C@@H]2OC(=O)c3cc(Cl)ccc32)[C@@H](O)[C@H]1O [Example 3A, (S)-3-((1S,2R,3S,4R)-4-(4-amino-7H-pyrrolo[2,3-d]pyrimidin-7-yl)-2,3-dihydroxycyclopentyl)-6-chloroisobenzofuran-1(3H)-one] | – | 7.68 | – | 5.79
Nc1ncnc2c1ccn2[C@@H]1O[C@H]([C@@H]2OCCc3cc(Cl)sc32)[C@@H](O)[C@H]1O [Example 90, (2R,3R,4S,5S)-2-(4-amino-7H-pyrrolo[2,3-d]pyrimidin-7-yl)-5-((S)-2-chloro-4,7-dihydro-5H-thieno[2,3-c]pyran-7-yl)tetrahydrofuran-3,4-diol] | 7.94 | 8.66 | 7.48 | –
Nc1ncnc2c1ccn2[C@@H]1O[C@H]([C@@H]2OCCc3cc(Cl)ccc32)[C@@H](O)[C@H]1O [Example 68, (2R,3R,4S,5S)-2-(4-amino-7H-pyrrolo[2,3-d]pyrimidin-7-yl)-5-((R)-6-chloroisochroman-1-yl)tetrahydrofuran-3,4-diol] | 8.59 | 8.92 | 8.04 | –
Nc1ncnc2c1c(F)cn2[C@@H]1O[C@H]([C@@H]2OCCc3cc(Cl)ccc32)[C@@H](O)[C@H]1O [Example 86, (2R,3R,4S,5S)-2-(4-amino-5-fluoro-7H-pyrrolo[2,3-d]pyrimidin-7-yl)-5-((R)-6-chloroisochroman-1-yl)tetrahydrofuran-3,4-diol] | 8.27 | 8.70 | 7.89 | –
Nc1ncnc2c1ccn2[C@@H]1O[C@H]([C@@H]2OCCc3ccc(Cl)cc32)[C@@H](O)[C@H]1O [Example 71, (2R,3R,4S,5S)-2-(4-amino-7H-pyrrolo[2,3-d]pyrimidin-7-yl)-5-((R)-7-chloroisochroman-1-yl)tetrahydrofuran-3,4-diol] | 7.53 | 8.21 | 7.14 | –

Continued by rising pIC50 [1], values first:

pIC50 [1] | pIC50 (PRMT5/MEP50 complex) | pIC50 (U-87 MG cells) | SMILES | pIC50 [2]
6.92 | 8.42 | 6.85 | Nc1ncnc2c1ccn2[C@@H]1O[C@H]([C@@H]2OCc3cc(Cl)ccc32)[C@@H](O)[C@H]1O [Example 1A, (2R,3R,4S,5S)-2-(4-amino-7H-pyrrolo[2,3-d]pyrimidin-7-yl)-5-((R)-5-chloro-1,3-dihydroisobenzofuran-1-yl)tetrahydrofuran-3,4-diol] | 7.57
6.92 | 8.11 | 6.29 | Cc1ncnc2c1ccn2[C@@H]1O[C@H]([C@@H]2OCCc3cc(Cl)c(Cl)cc32)[C@@H](O)[C@H]1O [Example 87, (2S,3S,4R,5R)-2-((R)-6,7-dichloroisochroman-1-yl)-5-(4-methyl-7H-pyrrolo[2,3-d]pyrimidin-7-yl)tetrahydrofuran-3,4-diol] | –
7.56 | 8.36 | 7.03 | Nc1ncnc2c1ccn2[C@@H]1O[C@H]([C@@H]2OCCc3c2ccc(Cl)c3F)[C@@H](O)[C@H]1O [Example 84, (2R,3R,4S,5S)-2-(4-amino-7H-pyrrolo[2,3-d]pyrimidin-7-yl)-5-((R)-6-chloro-5-fluoroisochroman-1-yl)tetrahydrofuran-3,4-diol] | –
7.95 | 8.80 | 7.73 | Nc1ncnc2c1ccn2[C@@H]1O[C@H]([C@@H]2OC[C@H](F)c3cc(Cl)ccc32)[C@@H](O)[C@H]1O [Example 95, (2R,3R,4S,5S)-2-(4-amino-7H-pyrrolo[2,3-d]pyrimidin-7-yl)-5-((1R,4R)-6-chloro-4-fluoroisochroman-1-yl)tetrahydrofuran-3,4-diol] | –

Source: patent US10711007B2, “Selective inhibitors of protein arginine methyltransferase 5 (PRMT5)” (Prelude Therapeutics, Incorporated, priority 2018, dated 2020)
